The source of these data is publication PMC11423305, “Structure-Based Design of CBP/EP300 Degraders: When Cooperativity Overcomes Affinity” (JACS Au, 2024).

pKd: −log10 of the molar value. A value given as a limit tells only on which side of the number the result lay.

Test [1] has as its target T1, EP300-BRD (Homo sapiens, UniProt Q09472).
T1 construct: T7 phage display fusion with DNA tag for qPCR; purchased Eurofins Discovery (BROMOscan service); host or cells: E. coli infected with T7 phage
T1 sequence (Q09472 1049-1156 limits assumed): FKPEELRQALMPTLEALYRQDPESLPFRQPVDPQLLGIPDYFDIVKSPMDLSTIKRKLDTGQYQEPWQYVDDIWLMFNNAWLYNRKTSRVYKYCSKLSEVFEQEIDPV
The test can be described thus: BROMOscan ligand binding site-directed competition assay, EP300. As to the method:
2. Methods and General Procedures […]
KD values were determined using BROMOscan™ technology, carried out by Eurofins […]
Discovery according to their standard protocol. Briefly E. coli were infected with T7 phage […]
strains displaying bromodomains and bromodomain protein was subsequently purified […]
through lysis, centrifugation and filtration. Affinity resins were generated by incubation of […]
streptavidin-coated magnetic beads with biotinylated small molecules or acetylated […]
peptide ligands. Binding reactions were assembled by combining the bromodomains and […]
liganded affinity beads in binding buffer (17 % SeaBlock, 0.33x PBS, 0.04 % Tween 20, […]
0.02 % BSA, 0.004 % sodium azide and 7.4 mM DTT) with compounds (11-point, 3-fold […]
dilution series) added to give a final DMSO concentration of 0.09 %. Assay plates were […]
incubated for 1 h, prior to washing and elution of beads. The bromodomain concentration […]
in the eluates was measured by qPCR of the DNA tag on the bromodomain.
KD values were calculated with a standard dose-response curve fitted using the Hill […]
Response = Background + Signal − Background […]
The Hill Slope was set to -1 and curves fitted using a non-linear least square fit with the Levenberg-Marquardt algorithm.
Ligand efficiency (LE) was calculated as follows: LE = 1.4(pIC50)/N

Test [2] concerns the target T2, CBP-BRD:CRBN thalidomide binding domain ternary complex (Homo sapiens, UniProt Q92793+Q96SW2).
T2 construct: GST-CBP (human, residues 1081-1197); the C-terminus of CRBN (human, residues 318-442); His6 with TEV cleavage site (N, cleaved yes); made in house; host or cells: Rosetta (DE3) cells (E. coli)
The test can be described thus: TR-FRET CBP-BRD:PROTAC:CRBN ternary complex formation. As to the method:
(PMSF), and 1 mM EDTA) and lysed by sonication. The lysates were clarified by centrifugation (18,000 rpm, 4 °C, 1 h).
For GST-CBP the soluble proteins were loaded onto a column packed with glutathione sepharose 4B (GE Healthcare) and subsequently eluted with 10 mM reduced glutathione in buffer containing 20 mM Tris-HCl pH 8.0, and 150 mM NaCl. Finally, a size exclusion step (HiLoad 16/600 Superdex 200 pg column from GE Healthcare) was used to further purify the protein in buffer containing 50 mM HEPES pH 7.5 and 150 mM NaCl. For His-CRBN and His-CRBN-Avi(biotin), the soluble fractions were loaded onto the HisTrap FF crude column (GE Healthcare) and washed with lysis buffer supplemented with 50 mM imidazole. The proteins were eluted with a buffer containing 250 mM imidazole, 100 mM Tris-HCl pH 8.0 and 500 mM NaCl. For His-CRBN-Avi(biotin) only, recombinant TEV protease was used to cleave the His6-tag during overnight dialysis at 4 °C against buffer containing 100 mM Tris-HCl pH 8.0 and 500 mM NaCl. The dialyzed sample was passed through the HisTrap FF crude column to remove His6-tagged TEV protease and uncleaved protein. […]
The maximal control contained no PROTAC, the blank contained no SK-20 and no PROTAC – these were replaced by the appropriate buffer. […] The samples were incubated for 3 h (20 °C, dark) and the signal was detected using the Infinite M1000 plate reader (Tecan). After excitation at 317 nm, emission at 620 and 665 nm was recorded. […]
were determined according to the following equation:
activity (%) = ΔF ∗ 100 = F−Fb ∗ 100 , where Ft is the TR-FRET signal in the absence of any compound (maximal control, 100 % activity), Fb the TR-FRET signal in the absence of the GST -CBP (blank, 0 % activity) and F the TR -FRET signal in the presence of the compound. Dose -response curves were plotted in GraphPad Prism 10.2.3 and fitted with nonlinear regression “log(inhibitor) vs. normalized response – variable slope”, from which IC 50 values were determined. […]

Broadly, the pKd is −log10 of the Kd, conventionally taken in molar units. Read a high pKd as a small Kd.

T2 sequence (Q92793 1081-1197): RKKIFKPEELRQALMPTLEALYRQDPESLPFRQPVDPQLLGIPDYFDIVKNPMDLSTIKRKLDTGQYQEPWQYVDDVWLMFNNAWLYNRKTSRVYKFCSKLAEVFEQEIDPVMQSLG
T2 sequence (Q96SW2 318-442): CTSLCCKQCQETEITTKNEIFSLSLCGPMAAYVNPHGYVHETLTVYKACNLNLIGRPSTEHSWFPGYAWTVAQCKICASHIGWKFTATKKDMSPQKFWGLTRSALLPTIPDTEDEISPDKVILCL

For the compound `Cc1cc2c(NC(=O)c3cc(NC(=O)CCCCCCCCCCNc4cccc5c4C(=O)N(C4CCC(=O)NC4=O)C5=O)cc(-c4ccn(C)n4)c3)cccc2nn1` (stereo not shown) [dCE-2], in test [1] (BROMOscan), the pKd was below 5.00. The “loss of potency compared to parent compound 3, EP300” value in test [1] (BROMOscan KD ratio) was above 400 fold. The “ternary complex formation (TR-FRET)” value in test [2] (CBP-BRD and CRBN-thalidomide binding domain labeled with TR-FRET pair) was “robust formation of the ternary complex”. Also, the “PROTAC concentration at peak of hook curve” value in test [2] (TR-FRET ternary complex) was “around 1 μM”.
